According to patent US20160220637A1, “Pharmaceutical Compositions of Growth Hormone Secretagogue Receptor Ligands” (Ipsen Pharma S.A.S., priority 2010, published 2016):
Structures can show the parent of a compound that is named as a salt. Non-standard residues stand in square brackets, D forms with d. Residues, ends and D or L forms follow the SMILES beside them. dBip = N[C@H](Cc1ccc(-c2ccccc2)cc1)C(=O)O; dBta = N[C@H](Cc1csc2ccccc12)C(=O)O; Api = NC1(C(=O)O)CCNCC1; Inp = O=C(O)C1CCNCC1

Assays:
[1] = target: human recombinant GHS receptor (Homo sapiens, UniProt Q92847); conditions: read-out: hGHS Ki; 0.05 nM (125I)ghrelin, 60 min, 4° C., CHO-K1 membranes
Sequence of human recombinant GHS receptor (Q92847 whole entry): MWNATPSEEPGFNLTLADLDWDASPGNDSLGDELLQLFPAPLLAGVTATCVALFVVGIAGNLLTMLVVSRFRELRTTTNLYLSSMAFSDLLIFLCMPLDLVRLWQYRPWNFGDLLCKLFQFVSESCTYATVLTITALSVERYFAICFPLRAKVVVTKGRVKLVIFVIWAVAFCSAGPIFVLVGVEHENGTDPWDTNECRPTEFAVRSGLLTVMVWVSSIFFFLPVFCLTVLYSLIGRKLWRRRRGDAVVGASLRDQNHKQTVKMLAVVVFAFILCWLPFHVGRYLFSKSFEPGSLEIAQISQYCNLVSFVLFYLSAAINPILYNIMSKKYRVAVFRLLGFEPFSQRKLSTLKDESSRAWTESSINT

Solubility study = assay type: physicochemical
From the text: The mixture was sonicated to facilitate dissolution.

Dissolution in PEG200/water (Solubility study; 50 mg in 125 μL PEG200 and 125 μL water, sonicated) | solubility (Solubility study; PBS, pH 7.4, PBS, pH 7.4, HPLC of supernatant) | Solubility, Water, pH 7.0 (Solubility study; HPLC of supernatant) | Solubility, PBS, pH 7.4 (Solubility study; PBS, pH 7.4, HPLC of supernatant) | SMILES | Ki [1]
 |  |  |  | NC(=O)[C@H](Cc1ccccc1)NC(=O)[C@@H](Cc1c[nH]c2ccccc12)NC(=O)[C@@H](Cc1ccc(-c2ccccc2)cc1)NC(=O)C1CCNCC1 [Example 16, H-Inp-D-Bip-D-Trp-Phe-NH2] (H-[Inp][dBip][dW]F-NH2) | 20 nM
A clear solution was obtained | 70 µg/mL | 0.06 mg/mL |  | NC(=O)C1(NC(=O)[C@H](Cc2ccccc2)NC(=O)[C@@H](Cc2c[nH]c3ccccc23)NC(=O)[C@@H](Cc2csc3ccccc23)NC(=O)C2CCNCC2)CCNCC1 [Pamoate salt of Example 1, pamoate salt of H-Inp-D-Bal-D-Trp-Phe-Apc-NH2] (H-[Inp][dBta][dW]F[Api]-NH2) | 
 |  | 0.14 mg/mL | 0.08 mg/mL | NC(=O)C1(NC(=O)[C@H](Cc2ccccc2)NC(=O)[C@@H](Cc2c[nH]c3ccccc23)NC(=O)[C@@H](Cc2csc3ccccc23)NC(=O)C2CCNCC2)CCNCC1 [Pamoate salt of Example 1 with Zn] (H-[Inp][dBta][dW]F[Api]-NH2) | 
